Read-outs that look alike come from different tables or passages of the source.
Experiments:
Format in all cases: cell-based
[1] = system: Staphylococcus aureus (ATCC 29213); test: Antimicrobial activity (MBC), S. aureus ATCC 29213
Description: (§1) To determine antimicrobial activity, Escherichia coli (ATCC 25922), Staphylococcus aureus (ATCC 29213), Pseudomonas aeruginosa (ATCC 27853), and Candida albicans (ATCC 10231) were used in primary screening. In addition, Escherichia coli (MCC 80392), Staphylococcus aureus (MCC 91731), Pseudomonas aeruginosa (MCC 4438), and Candida albicans (MCC 50319), provided by Alcon Laboratories, Fort Worth, Tex., were used. The microbial cultures were diluted in sterile saline pH 4 to prepare inocula. Test compounds were titrated by stepwise two-fold dilutions in sterile saline pH 4. A total of 1.0×10^5 to 1.0×10^6 Colony Forming Units (CFU)/mL microbe was added to each tube, mixed by gentle vortexing, and then incubated at room temperature for 1 h. Microbial plating on Petri dishes (Tryptic Soy agar or Saboraud's Dextrose agar) was performed immediately after the designated exposure after neutralization of the test article dilutions in Dey-Engley Broth. Plates were incubated at 37° C., and the numbers of microbes were counted by direct colony count to quantitate the surviving microbes as CFU/mL. Positive growth controls were made with sterile 0.9% saline. Compounds were dissolved in unbuffered isotonic saline (SAL) or phosphate buffered saline (PBS) at pH 4 or pH 7 (using HCl and/or NaOH as needed). All compounds were tested three times. The results are tabulated to show the comparison of antimicrobial effectiveness range of the compounds.
(§2) Data shown are the Minimum Bactericidal Concentration (MBC) or Minimum Fungicidal Concentration (MFC) (≧99.9% kill) in μg/mL.

[2] = system: Escherichia coli (ATCC 25922); test: Antimicrobial activity (MBC), E. coli ATCC 25922
Description: as §1, §2

[3] = system: Candida albicans (MCC 50319); test: Antimicrobial activity (MFC), C. albicans MCC 50319; details: 1 h exposure at room temperature
Description: as §1, §2

[4] = system: mouse fibroblast cells (ATCC CCL-1, L929); test: Cytotoxicity, WST-8 colorimetric assay; details: 60 min exposure
Description: Cytotoxicity was assessed by a colorimetric assay system using the Dojindo™ cell counting kit containing 2-(2-methoxy-4-nitrophenyl)-3-(4-nitrophenyl)-5-(2,4-disulfophenyl)-2H-tetrazolium, monosodium salt (WST-8). In this assay, the WST-8 reagent was bioreduced by cellular dehydrogenases to a formazan product that is highly soluble in tissue culture medium.
In a standard assay, mouse fibroblast cells (ATCC CCL-1, L929), were cultured in Minimum Essential Medium, α-medium supplemented with 10% heat inactivated fetal bovine serum, L-glutamine, penicillin and streptomycin. Cells were trypsinized and counted under the microscope and seeded at 1.5×10^4 total cells per 100 μL per well of a flat-bottom 96-well plate in order to achieve ˜80% confluence after overnight incubation at 37° C. On the day of the assay, the tissue culture medium was removed and replaced with 30 μL of fresh medium.
Test articles were prepared as 2-fold serial dilutions and 170 μL of each dilution is added into each of 4-wells (total volume per well=200 μL). The test plate was then returned to the 37° C. incubator for 60 min. Immediately after the exposed time, test article from each well was replaced with 200 μL of fresh media. Plates were incubated at 37° C. for 18-20 hours. The following day growth medium was replaced with 100 μL/well of fresh medium containing 10 μL WST-8 reagent. Cells were incubated under growth conditions (5% CO2 at 37° C. humidified incubator), protected from light, until color development was achieved (usually 1-4 hours). Absorbance was read at 450 nm with reference wavelength at 750 nm using Molecular Device SpectraMax M5 plate reader. Untreated or vehicle only treated cells receiving WST-8 reagent served as positive cell proliferation controls.
The absorbance A450/750 from each well of untreated cells and from each well within the dilution series was measured. […] Next, a non-linear regression (curve fit) analysis was performed on all the absorbance data measured from the dilution series, including the absorbance data obtained from wells of the untreated control cells. For each dilution within the dilution series, an average A450/750 was calculated from the four replicate wells.

[5] = system: Staphylococcus aureus (MCC 91731); test: Antimicrobial activity (MBC), S. aureus MCC 91731; details: 1 h exposure at room temperature
Description: as §1, §2

[6] = system: Candida albicans (ATCC 10231); test: Antimicrobial activity (MFC), C. albicans ATCC 10231
Description: as §1, §2

[7] = system: Escherichia coli (MCC 80392); test: Antimicrobial activity (MBC), E. coli MCC 80392; details: 1 h exposure at room temperature
Description: as §1, §2

[8] = system: Pseudomonas aeruginosa (MCC 4438); test: Antimicrobial activity (MBC), P. aeruginosa MCC 4438; details: 1 h exposure at room temperature
Description: as §1, §2

[9] = ATCC29213, S. aureus ATCC 29213, pH 4 (Sal), 1 h exposure at room temperature, read-out: Minimum Bactericidal Concentration (MBC) (≧99.9% kill)
[10] = ATCC25922, E. coli ATCC 25922, pH 4 (Sal), 1 h exposure at room temperature, read-out: Minimum Bactericidal Concentration (MBC) (≧99.9% kill)
[11] = ATCC10231, C. albicans ATCC 10231, pH 4 (Sal), 1 h exposure at room temperature, read-out: Minimum Fungicidal Concentration (MFC) (≧99.9% kill)

Row | SMILES | MBC ([1]; ATCC29213, 1 h, pH 4, read-out: Minimum Bactericidal Concentration (MBC) (≧99.9% kill)) | MBC ([2]; ATCC25922, 1 h, pH 4, read-out: Minimum Bactericidal Concentration (MBC) (≧99.9% kill)) | Minimum Fungicidal Concentration (MFC) (≧99.9% kill) ([3]; pH 4 (Sal)) | Minimum Fungicidal Concentration (MFC) (≧99.9% kill) ([3]; pH 7 (PBS)) | CT50 (concentration that results in survival of 50% of the cells) ([4]; pH 4 (Sal)) | CT50 (concentration that results in survival of 50% of the cells) ([4]; pH 7 (PBS)) | Minimum Bactericidal Concentration (MBC) (≧99.9% kill) ([5]; pH 4 (Sal)) | Minimum Bactericidal Concentration (MBC) (≧99.9% kill) ([5]; pH 7 (PBS)) | MFC ([6]; ATCC10231, 1 h, pH 4, read-out: Minimum Fungicidal Concentration (MFC) (≧99.9% kill)) | Minimum Bactericidal Concentration (MBC) (≧99.9% kill) ([7]; pH 4 (Sal)) | Minimum Bactericidal Concentration (MBC) (≧99.9% kill) ([7]; pH 7 (PBS)) | MBC [1, 9] | MBC ([1]; ATCC29213, S. aureus ATCC 29213, pH 7 (PBS), 1 h exposure at room temperature, read-out: Minimum Bactericidal Concentration (MBC) (≧99.9% kill)) | MBC [2, 10] | MBC ([2]; ATCC25922, E. coli ATCC 25922, pH 7 (PBS), 1 h exposure at room temperature, read-out: Minimum Bactericidal Concentration (MBC) (≧99.9% kill)) | MFC [6, 11] | MFC ([6]; ATCC10231, C. albicans ATCC 10231, pH 7 (PBS), 1 h exposure at room temperature, read-out: Minimum Fungicidal Concentration (MFC) (≧99.9% kill)) | Minimum Bactericidal Concentration (MBC) (≧99.9% kill) ([8]; pH 7 (PBS)) | Minimum Bactericidal Concentration (MBC) (≧99.9% kill) ([8]; pH 4 (Sal))
1 | CC(C)(C[N+](C)(C)C)N(Cl)Cl [Compound 21-30, 2-(Dichloroamino)-N,N,N-2-tetramethylpropan-1-ammonium chloride] | 8 mg/L | 16 mg/L | 256 mg/L | >2048 mg/L | 0.5 mM | 0.5 mM | 8 mg/L | 512 mg/L | 128 mg/L | 16 mg/L | 512 mg/L |  |  |  |  |  |  |  | 
2 | CC(C)(CC[N+](C)(C)C)N(Cl)Cl.[Cl-] [Compound 21-32, 3-(Dichloroamino)-N,N,N-3-tetramethylbutan-1-ammonium chloride] |  |  | 32 mg/L | >1024 mg/L | 1.7 mM | 1.8 mM | 1 mg/L | 256 mg/L |  | 8 mg/L | 256 mg/L | 2 mg/L | 512 mg/L | 2 mg/L | 128 mg/L | 64 mg/L | > 4100 mg/L | 512 mg/L | 
3 | CC[N+](C)(CC)CCC(C)(C)N(Cl)Cl.[Cl-] [Compound 21-114, 3-(Dichloroamino)-N,N-diethyl-N-3-dimethylbutan-1-ammonium chloride] |  |  |  |  | 1.3 mM |  | 4 mg/L | 512 mg/L |  | 2 mg/L | 512 mg/L | 2 mg/L |  | 8 mg/L |  | 16 mg/L |  | 1024 mg/L | 4 mg/L
4 | CC(C)(CC[N+]1(C)CCC(F)(F)CC1)N(Cl)Cl.[Cl-] [Compound 21-116, 1-(3-(Dichloroamino)-3-methylbutyl)-4,4-difluoro-1-methylpiperidinium chloride] |  |  |  |  | 3.0 mM |  |  |  |  |  |  | 2 mg/L |  | 4 mg/L |  | 32 mg/L |  |  | 
5 | CC(C)(CCS(=O)(=O)CCC[N+](C)(C)C)N(Cl)Cl.[Cl-] [Compound 21-112, S-3-(3-(Dichloroamino)-3-methylbutylsulfonyl)-N,N,N-trimethylpropan-1-ammonium chloride] |  |  |  |  | 1.4 mM |  |  |  |  |  |  | 2 mg/L |  | 8 mg/L |  | 32 mg/L |  |  | 
